The source of these data is paper PMC5595947 (British Journal of Clinical Pharmacology, 2017).

For data set [1], the system named is CYP1A2. It is filed as in vitro ADME, human.
In data set [2] the test system is CYP2C9. It is filed as in vitro ADME, human.
For data set [3], the target named is CYP2C19 (Homo sapiens, UniProt P33261). The following applies: HLM; TV‐45065 0.05 to 50 μmol l^–1.
The target of data set [4] is CYP2C9 (Homo sapiens, UniProt P11712). The conditions noted are these: HLM; TV‐45065 0.05 to 50 μmol l^–1; printed CYP2C8/9.
Data set [5] addresses T1, CYP1A2 (Homo sapiens, UniProt P05177).
T1 sequence (P05177 1-516): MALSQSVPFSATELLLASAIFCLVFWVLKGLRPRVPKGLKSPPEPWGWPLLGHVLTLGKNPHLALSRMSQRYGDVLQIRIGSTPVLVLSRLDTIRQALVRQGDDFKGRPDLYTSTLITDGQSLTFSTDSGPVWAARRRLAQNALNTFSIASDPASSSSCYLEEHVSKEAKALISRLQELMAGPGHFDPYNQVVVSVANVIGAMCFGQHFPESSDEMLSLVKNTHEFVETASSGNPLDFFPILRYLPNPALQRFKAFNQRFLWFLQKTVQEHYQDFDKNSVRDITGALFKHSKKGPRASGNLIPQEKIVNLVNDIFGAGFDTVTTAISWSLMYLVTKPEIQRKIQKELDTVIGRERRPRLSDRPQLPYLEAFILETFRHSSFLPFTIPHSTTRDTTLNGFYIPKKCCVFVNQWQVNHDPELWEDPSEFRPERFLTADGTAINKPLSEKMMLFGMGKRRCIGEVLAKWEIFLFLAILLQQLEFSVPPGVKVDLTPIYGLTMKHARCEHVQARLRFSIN
The conditions noted are these: HLM; TV‐45065 0.05 to 50 μmol l^–1.

The test system of data set [6] is CYP2C8. The data set is classed as in vitro ADME, human.
Data set [7] relates to CYP2C19. It is filed as in vitro ADME, human.
A further data set deals with CYP3A4 (Homo sapiens, UniProt P08684). Put plainly: CYP3A4 inhibition in human liver microsomes. The data set is classed as in vitro ADME. The following applies: HLM; TV‐45065 0.05 to 50 μmol l^–1. For orientation: Microsomes from liver hold many membrane-bound enzymes, among them those of drug oxidation.
The next data set deals with CYP2B6. It is filed as in vitro ADME, human.
The target in data set [8] is T2, CYP2D6 (Homo sapiens, UniProt P10635). Description: CYP2D6 inhibition in human liver microsomes. It is filed as in vitro ADME.
A further data set relates to CYP3A4/5. Description: CYP3A4/5 induction in cultured human hepatocytes. It is filed as in vitro ADME.
Data set [9] has as its target T3, CYP2C8 (Homo sapiens, UniProt P10632).
T3 sequence (P10632 1-490): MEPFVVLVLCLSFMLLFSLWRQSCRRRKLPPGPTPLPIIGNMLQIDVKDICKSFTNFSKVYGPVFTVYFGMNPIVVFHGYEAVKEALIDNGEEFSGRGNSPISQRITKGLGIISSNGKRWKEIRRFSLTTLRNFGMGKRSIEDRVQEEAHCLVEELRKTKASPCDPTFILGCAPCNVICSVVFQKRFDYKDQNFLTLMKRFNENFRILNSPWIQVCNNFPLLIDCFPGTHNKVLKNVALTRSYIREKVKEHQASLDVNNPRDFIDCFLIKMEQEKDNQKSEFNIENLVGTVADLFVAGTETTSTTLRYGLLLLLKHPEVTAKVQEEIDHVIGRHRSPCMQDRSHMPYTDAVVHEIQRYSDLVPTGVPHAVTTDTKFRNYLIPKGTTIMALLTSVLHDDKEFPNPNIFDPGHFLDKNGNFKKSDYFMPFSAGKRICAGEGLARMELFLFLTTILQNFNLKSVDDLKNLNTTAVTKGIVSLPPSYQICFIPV
The following applies: HLM; TV‐45065 0.05 to 50 μmol l^–1; printed CYP2C8/9.

For data set [10] the following is noted: cited from earlier work; for elimination half‐life: metabolite.
Data set [11] has as its target T2, CYP2D6. Description: clinical. The following applies: plasma, 100 mg.
For data set [12], the target named is T2, CYP2D6.
Data set [13] concerns the target T2, CYP2D6. The following applies: up to 100 μmol l^–1 pridopidine.
Data set [14] can be described thus: Safety and adverse events in the phase‐1 study in healthy subjects. It is filed as in vivo, human.
Another data set is described as follows: clinical. The conditions noted are these: human, plasma, oral, 45 mg.
Assay in data set [15]: not given
This is another data set of the same source.

[16] abbreviates: up to 50 μmol l^–1 TV‐45065, three consecutive days.
Setting [17] is: caused by steady‐state pridopidine (discussion).
The mark [18] stands for this setting: metoprolol coadministered with pridopidine vs alone.
The mark [19] stands for this setting: up to 100 μmol l^–1 pridopidine, 3 days, three hepatocyte cultures.
Where [20] appears, read: up to 100 μmol l^–1 pridopidine, cultured human hepatocytes.

SMILES strings stand for the structures. Read-outs that look alike come from different tables or passages of the source.

T2 sequence (P10635 whole entry): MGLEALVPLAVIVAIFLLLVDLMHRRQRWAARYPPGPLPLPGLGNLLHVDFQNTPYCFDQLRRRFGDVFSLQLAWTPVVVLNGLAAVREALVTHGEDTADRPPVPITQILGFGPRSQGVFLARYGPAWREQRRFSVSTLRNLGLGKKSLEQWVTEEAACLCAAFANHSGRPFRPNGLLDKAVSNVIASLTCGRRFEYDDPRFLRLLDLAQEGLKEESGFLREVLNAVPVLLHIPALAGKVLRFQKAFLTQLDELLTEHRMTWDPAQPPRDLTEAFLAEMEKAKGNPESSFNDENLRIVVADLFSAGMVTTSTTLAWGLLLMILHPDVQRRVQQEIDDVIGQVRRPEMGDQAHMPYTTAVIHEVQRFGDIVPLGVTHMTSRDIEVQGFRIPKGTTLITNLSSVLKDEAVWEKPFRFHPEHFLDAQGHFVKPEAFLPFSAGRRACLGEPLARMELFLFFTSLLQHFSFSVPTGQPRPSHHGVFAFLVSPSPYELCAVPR
Chain of CYP2C9 (Homo sapiens, UniProt P11712) (P11712 whole entry): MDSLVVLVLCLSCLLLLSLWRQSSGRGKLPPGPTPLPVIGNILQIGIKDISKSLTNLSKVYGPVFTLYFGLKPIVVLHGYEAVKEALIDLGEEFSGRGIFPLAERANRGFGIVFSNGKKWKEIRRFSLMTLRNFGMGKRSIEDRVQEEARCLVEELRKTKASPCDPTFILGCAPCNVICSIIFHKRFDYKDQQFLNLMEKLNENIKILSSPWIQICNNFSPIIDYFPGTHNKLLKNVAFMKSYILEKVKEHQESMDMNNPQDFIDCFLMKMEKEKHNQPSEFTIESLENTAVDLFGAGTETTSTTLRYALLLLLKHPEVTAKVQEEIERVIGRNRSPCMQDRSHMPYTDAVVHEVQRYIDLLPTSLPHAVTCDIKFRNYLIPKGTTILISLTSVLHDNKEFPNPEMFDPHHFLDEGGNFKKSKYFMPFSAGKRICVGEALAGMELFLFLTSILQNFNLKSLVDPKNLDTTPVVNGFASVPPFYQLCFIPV
Chain of CYP2C19 (Homo sapiens, UniProt P33261) (P33261 whole entry): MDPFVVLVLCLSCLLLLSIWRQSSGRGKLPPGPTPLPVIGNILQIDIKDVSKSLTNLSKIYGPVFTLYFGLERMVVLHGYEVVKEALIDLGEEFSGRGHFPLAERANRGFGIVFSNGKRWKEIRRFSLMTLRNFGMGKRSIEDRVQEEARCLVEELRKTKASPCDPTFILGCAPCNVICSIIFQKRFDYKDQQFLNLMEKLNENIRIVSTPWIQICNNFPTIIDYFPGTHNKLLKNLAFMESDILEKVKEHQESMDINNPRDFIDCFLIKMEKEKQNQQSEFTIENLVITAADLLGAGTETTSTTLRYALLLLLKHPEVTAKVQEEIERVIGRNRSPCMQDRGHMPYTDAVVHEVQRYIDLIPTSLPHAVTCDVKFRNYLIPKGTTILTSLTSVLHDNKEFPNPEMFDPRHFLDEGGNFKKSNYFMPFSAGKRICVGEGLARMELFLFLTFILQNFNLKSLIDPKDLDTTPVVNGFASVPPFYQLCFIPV
Chain of CYP3A4 (P08684 2-503): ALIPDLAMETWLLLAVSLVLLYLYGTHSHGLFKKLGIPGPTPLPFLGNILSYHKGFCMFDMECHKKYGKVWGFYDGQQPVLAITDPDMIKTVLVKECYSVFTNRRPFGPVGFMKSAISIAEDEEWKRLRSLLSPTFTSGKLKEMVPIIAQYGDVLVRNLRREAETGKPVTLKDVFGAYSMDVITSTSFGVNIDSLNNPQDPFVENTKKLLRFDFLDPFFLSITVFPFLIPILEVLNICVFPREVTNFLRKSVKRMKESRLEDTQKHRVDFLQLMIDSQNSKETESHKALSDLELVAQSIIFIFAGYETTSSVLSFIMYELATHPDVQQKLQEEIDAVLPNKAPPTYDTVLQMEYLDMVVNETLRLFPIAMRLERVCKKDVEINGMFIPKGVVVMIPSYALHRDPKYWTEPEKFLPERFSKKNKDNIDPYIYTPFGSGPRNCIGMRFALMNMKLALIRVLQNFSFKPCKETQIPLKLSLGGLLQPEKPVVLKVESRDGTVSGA

As for `CS(=O)(=O)c1cccc(C2CCNCC2)c1` [TV‐45065], in the data set on CYP1A2 [1] (setting [16]), the “CYP1A2 induction, effectiveness relative to positive control CYP inducer” value is on record as not above 20% and the “increase in CYP1A2 activity or mRNA expression (on average)” value is recorded as not above 2.0 fold. Besides, in the data set on CYP2C9 [2] (setting [16]), the “CYP2C9 induction, effectiveness relative to positive control CYP inducer” value was not above 20% and the “increase in CYP2C9 activity or mRNA expression (on average)” value was not above 2.0 fold. Besides, at CYP2C19 [3], the “direct inhibition of CYP2C19” value is “did not show any direct inhibition”. The “direct inhibition of CYP2C9” value at CYP2C9 [4] is on record as “did not show any direct inhibition”. In addition, the “direct inhibition of CYP1A2” value on CYP1A2 [5] is on record as “did not show any direct inhibition”. For the same compound, in the data set with CYP2C8 [6] (setting [16]), the “CYP2C8 induction, effectiveness relative to positive control CYP inducer” value is given as not above 20% and the “increase in CYP2C8 activity or mRNA expression (on average)” value was not above 2.0 fold. In addition, in the data set with CYP2C19 [7] (setting [16]), the “CYP2C19 induction, effectiveness relative to positive control CYP inducer” value is not above 20% and the “increase in CYP2C19 activity or mRNA expression (on average)” value is not above 2.0 fold. In addition, at CYP3A4, the “direct inhibition of CYP3A4” value is on record as “did not show any direct inhibition”. In the data set with CYP2B6 (setting [16]), the “CYP2B6 induction, effectiveness relative to positive control CYP inducer” value is not above 20% and the “increase in CYP2B6 activity or mRNA expression (on average)” value is not above 2.0 fold. In addition, on CYP2D6 [8] (HLM, TV‐45065 0.05 to 50 μmol l^–1), the “direct inhibition of CYP2D6” value is on record as “did not show any direct inhibition”. In addition, the IC50 on CYP2D6 [8] (read-out: IC50, time‐/metabolism‐dependent inhibition of CYP2D6, HLM, TV‐45065 0.05 to 50 μmol l^–1) is more than 50 µM. Besides, where the note is “metabolite after single 90‐mg pridopidine dose, data not shown”, the “Cmax and AUC, fed vs fasted states” value is recorded as “similar”. For the same compound, in the data set on CYP3A4/5 (setting [16]), the “CYP3A4/5 induction, effectiveness relative to positive control CYP inducer” value was not above 20% and the “increase in CYP3A4/5 activity or mRNA expression (on average)” value is not above 2.0 fold. Further, the “direct inhibition of CYP2C8” value at CYP2C8 [9] is given as “did not show any direct inhibition”. Also, in data set [10] (repeated administration, extensive metabolizers), the “elimination half‐life” value was 17 h. Moreover, in [10] (repeated administration, poor metabolizers), the “elimination half‐life” value is recorded as 19 h. For the same compound, the “elimination half‐life” value in data set [10] (single dose administration, extensive metabolizers) was “approximately 8 h”. Also, the “elimination half‐life” value in data set [10] (single dose administration, poor metabolizers) is on record as approximately 32 h.
As a reminder, the Tmax is the time from dosing to the highest level. What is called AUC(0-inf) is total exposure, with the tail of the curve extrapolated. A higher AUC(0-inf) goes with more exposure. In general, AUC(0-t) refers to exposure summed from dosing to a finite time, without extrapolation to infinity. As a reminder, the Cmax is the highest concentration seen after dosing. For `COCCc1ccc(OCC(O)CNC(C)C)cc1` (stereo not shown) [metoprolol], the Tmax on CYP2D6 [11] (oral) was 0.75 to 2 h. In addition, at CYP2D6 [11] (po), the AUC(0-inf) is 460 ng·h/mL, the AUC(0-t) was 447 ng·h/mL, the concentration peaked (Cmax) at 84 ng/mL and the Tmax is approximately 2 h. Also, at CYP2D6 [12] (setting [17]), the “increase in metoprolol AUC” value is “up to 5 fold” and the “increase in metoprolol peak concentrations” value is on record as “up to 3 fold”. In addition, the “t½, mean (SD)” value at CYP2D6 [12] (metoprolol 100 mg single oral dose alone) is listed as 3.69 (0.83) h. For the same compound, at CYP2D6 [12] (setting [18]), the “increase in mean AUC0–∞” value came out at 5.1 fold and the “increase in mean Cmax” value is 3.5 fold. Further, the range of tmax at CYP2D6 [12] (metoprolol during coadministration with pridopidine) lay in the range of 1 to 4 h.
For the compound `CCCN1CCC(c2cccc(S(C)(=O)=O)c2)CC1` [pridopidine, 4‐[3‐(methylsulfonyl)phenyl]‐1‐propylpidperidine], in the data set with CYP1A2 [1] (setting [19]), the “change in CYP1A2 mRNA levels” value is less than 2 fold. In addition, the “change in CYP1A2 activity” value in the data set with CYP1A2 [1] (setting [20]) was less than 2 fold. For the same compound, the “change in CYP2C9 mRNA levels” value with CYP2C9 [2] (setting [19]) was less than 2 fold. Further, the “change in CYP2C9 activity” value in the data set with CYP2C9 [2] (setting [20]) is listed as less than 2 fold. In addition, the “decrease in CYP2D6 activity compared to vehicle control” value at CYP2D6 [13] (hepatocyte cultures, vehicle 0.1% DMSO) is given as “up to 64.2%”. Moreover, on CYP2D6 [13] (3 days, three hepatocyte cultures), the “change in CYP2D6 mRNA levels” value is recorded as less than 2 fold. Further, the “amnestic aphasia, subjects” value in data set [14] (following BID administration, two subjects) is listed as 9.1%. Further, the “increase in pulse rate” value in [14] (pridopidine 45 mg BID) is on record as “up to 12 beats min^–1”. Also, in the data set with CYP2C8 [6] (setting [19]), the “change in CYP2C8 mRNA levels” value is given as less than 2 fold. The “change in CYP2C8 activity” value in the data set with CYP2C8 [6] (setting [20]) was less than 2 fold. The same compound gave a Cmax in the data set “clinical” of 525 ng/mL. For the same compound, in [15] (45 mg BID for 7 days, PM (6–18 h), metoprolol given with PM dose), the “Cmax,ss, mean (SD)” value is 727.30 (152.38) ng ml^–1. Besides, the “Cav,ss, mean (SD)” value in data set [15] (45 mg BID, AM (0–6 h)) was 407.29 (90.82); in [15] (45 mg BID, PM (6–18 h)) it was 447.33 (92.19). Also, the “AUCss, mean (SD)” value is given as 2443.75 (544.95) ng h ml^–1 in data set [15] (45 mg BID, AM (0–6 h), AUC0–6) and 8052.03 (1659.34) ng h ml^–1 in [15] (45 mg BID, PM (6–18 h), AUC0–18 following the afternoon dose). The “time of BID dosing after which steady state was reached” value in data set [15] (45 mg BID, morning trough plasma levels) stood at 7 days. Moreover, the “change in CYP2C19 mRNA levels” value with CYP2C19 [7] (setting [19]) is less than 2 fold. Also, in the data set on CYP2C19 [7] (setting [20]), the “change in CYP2C19 activity” value is less than 2 fold. The “change in CYP2B6 mRNA levels” value in the data set on CYP2B6 (setting [19]) is given as less than 2 fold. Also, the “change in CYP2B6 activity” value in the data set on CYP2B6 (setting [20]) is listed as less than 2 fold. On CYP2D6 [8] (HLM heat treated (50°C, 2 min)), the “effect of heat inactivation of FMO on CYP2D6 MDI extent” value was “did not affect”. The IC50 on CYP2D6 [8] (IC50, direct inhibition (no preincubation), HLM, preincubation time row 2 h) turned out to be 39 µM; against CYP2D6 [8] (IC50, direct inhibition (no preincubation), HLM, preincubation time row 3 h), 39 µM; against CYP2D6 [8] (IC50, direct inhibition (no preincubation), HLM, preincubation time row 4 h) it was 39 µM. The “reversibility of metabolism‐dependent inhibition of CYP2D6” value on CYP2D6 [8] (microsomal re‐isolation or addition of potassium ferricyanide) is listed as “not reversed”. Also, where the note is “single 90‐mg dose”, the “difference in median tmax, fed state in comparison to fasted state” value worked out at 1.5 h. Moreover, the “change in CYP3A4 mRNA levels” value in the data set on CYP3A4/5 (setting [19]) is listed as less than 2 fold. In data set [10] (oral administration), the “time (tmax) to reach Cmax” value is recorded as “roughly 2 h”. Besides, the “mean peak concentration in plasma” value is given as 303 ng ml^–1 in data set [10] (single 45‐mg dose) and 620 ng ml^–1 in data set [10] (steady state following 14 days of 45 mg BID dosing). For the same compound, the pridopidine exposure in data set [10] (single dose, extensive metabolizers) was 3782 ng h ml^–1; in data set [10] (single dose, poor metabolizers), 11 192 ng h ml^–1; in data set [10] (steady state, extensive metabolizers), 9338 ng h ml^–1; in [10] (steady state, poor metabolizers), 12 080 ng ml^–1.
